The results in this text go back to PubChem BioAssay AID328 (DTP/NCI, 2004).

“And” between values parts separate entries of the source, which are not always exact repeats. Equal values may be shown once. Inconclusive results and toxic doses are left out.

The experiment concerns BDF1 mice, P388 leukemia ip, median survival T/C. As to the kind of experiment: NCI In Vivo Anticancer Drug Screen. Data for tumor model P388 Leukemia (intraperitoneal) in B6D2F1 (BDF1) mice. The conditions noted are these: endpoint: median survival time, higher = longer survival. In outline:
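Reported as T/C, where T is the survival measurement in dosed animals and C the same measurement in vehicle controls.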

Where [1] appears, read: dose: 25.0 mg/kg/injection, schedule: Q01DX009 (ip), vehicle: Klucel (hydroxypropylcellulose) (HPC).
Where [2] appears, read: dose: 25.0 mg/kg/injection, schedule: Q01DX009 (ip), vehicle: saline with Tween-80.
The mark [3] stands for this setting: dose: 25.0 mg/kg/injection, schedule: Q01DX009 (ip), vehicle: saline.
Where [4] appears, read: dose: 50.0 mg/kg/injection, schedule: Q01DX009 (ip), vehicle: saline.
[5] abbreviates: dose: 50.0 mg/kg/injection, schedule: Q04DX003 (ip), vehicle: saline.
The mark [6] stands for this setting: dose: 100.0 mg/kg/injection, schedule: Q04DX003 (ip), vehicle: saline.

As to `O=Cc1ccc(/C=C2\NC(=O)NC2=O)cc1`, the T/C is 89 % of control (dose: 3.12 mg/kg/injection, schedule: Q01DX009 (ip), vehicle: water); 100 % of control (dose: 6.25 mg/kg/injection, schedule: Q01DX009 (ip), vehicle: Klucel (hydroxypropylcellulose) (HPC)); 106 % of control (dose: 6.25 mg/kg/injection, schedule: Q01DX009 (ip), vehicle: water); 95 % of control (dose: 12.5 mg/kg/injection, schedule: Q01DX009 (ip), vehicle: Klucel (hydroxypropylcellulose) (HPC)); 120 % of control (dose: 12.5 mg/kg/injection, schedule: Q01DX009 (ip), vehicle: water); 92 % of control under setting [1]. In addition, the T/C is 121 % of control (dose: 25.0 mg/kg/injection, schedule: Q01DX009 (ip), vehicle: water); 92 % of control (dose: 50.0 mg/kg/injection, schedule: Q01DX009 (ip), vehicle: Klucel (hydroxypropylcellulose) (HPC)); 103 % of control (dose: 50.0 mg/kg/injection, schedule: Q04DX003 (ip), vehicle: water); 87 % of control (dose: 100.0 mg/kg/injection, schedule: Q04DX003 (ip), vehicle: water); 119 % of control (dose: 200.0 mg/kg/injection, schedule: Q04DX003 (ip), vehicle: water).

For the molecule `O=NN(CCBr)C(=O)Nc1ccccc1`, the T/C is, setting by setting: (dose: 4.0 mg/kg/injection, schedule: Q04DX003 (ip), vehicle: Klucel (hydroxypropylcellulose) (HPC)) 107 % of control; (dose: 6.5 mg/kg/injection, schedule: Q04DX003 (ip), vehicle: Klucel (hydroxypropylcellulose) (HPC)) 119 % of control; (dose: 11.0 mg/kg/injection, schedule: Q01DX009 (ip), vehicle: Klucel (hydroxypropylcellulose) (HPC)) 150 % of control and 158 % of control; (dose: 15.0 mg/kg/injection, schedule: Q04DX003 (ip), vehicle: Klucel (hydroxypropylcellulose) (HPC)) 162 % of control; (dose: 16.5 mg/kg/injection, schedule: Q01DX009 (ip), vehicle: Klucel (hydroxypropylcellulose) (HPC)) 166 % of control; (dose: 16.5 mg/kg/injection, schedule: Q01DX009 (ip), vehicle: saline with Tween-80) 185 % of control. Besides, the T/C was 195 % of control and 215 % of control under setting [1]; 200 % of control under setting [2]; 154 % of control and 168 % of control (dose: 29.0 mg/kg/injection, schedule: Q04DX003 (ip), vehicle: Klucel (hydroxypropylcellulose) (HPC)); 220 % of control (dose: 37.5 mg/kg/injection, schedule: Q01DX009 (ip), vehicle: Klucel (hydroxypropylcellulose) (HPC)); 210 % of control (dose: 37.5 mg/kg/injection, schedule: Q01DX009 (ip), vehicle: saline with Tween-80); 175 % of control and 181 % of control (dose: 44.0 mg/kg/injection, schedule: Q04DX003 (ip), vehicle: Klucel (hydroxypropylcellulose) (HPC)). Besides, the T/C runs as follows: (dose: 67.0 mg/kg/injection, schedule: Q04DX003 (ip), vehicle: Klucel (hydroxypropylcellulose) (HPC)) 167 % of control and 185 % of control and 204 % of control; (dose: 100.0 mg/kg/injection, schedule: Q04DX003 (ip), vehicle: Klucel (hydroxypropylcellulose) (HPC)) 121 % of control and 211 % of control; (dose: 150.0 mg/kg/injection, schedule: Q04DX003 (ip), vehicle: Klucel (hydroxypropylcellulose) (HPC)) 175 % of control.

With `N=C(N)SCc1ccc(C(=O)Oc2ccc([N+](=O)[O-])cc2)cc1`, the T/C is 104 % of control under setting [3], 90 % of control under setting [4], 110 % of control under setting [5] and 110 % of control under setting [6].

`O=c1c2ccccc2[nH]c2c([N+](=O)[O-])ccc(Oc3cccc(C(F)(F)F)c3)c12`: the T/C reads like this: (dose: 100.0 mg/kg/injection, schedule: Q04DX002 (ip), vehicle: saline with Tween-80) 90 % of control; (dose: 200.0 mg/kg/injection, schedule: Q04DX002 (ip), vehicle: saline with Tween-80) 102 % of control; (dose: 400.0 mg/kg/injection, schedule: Q04DX002 (ip), vehicle: saline with Tween-80) 92 % of control.

For `Nc1ccc(S(=O)(=O)N/N=C/c2ccccc2[N+](=O)[O-])cc1`, the T/C is, setting by setting: (dose: 6.25 mg/kg/injection, schedule: Q01DX009 (ip), vehicle: saline with Tween-80) 95 % of control; (dose: 12.5 mg/kg/injection, schedule: Q01DX009 (ip), vehicle: saline with Tween-80) 100 % of control; under setting [2], 101 % of control.

On to `CC(=O)CC(C)=O.CC(=O)CC(C)=O.Cc1ncc[nH]1.Cc1ncc[nH]1.[Co]`, for which the T/C reads like this: (dose: 12.5 mg/kg/injection, schedule: Q01DX001 (ip), vehicle: saline with Tween-80) 100 % of control; (dose: 25.0 mg/kg/injection, schedule: Q01DX001 (ip), vehicle: saline with Tween-80) 97 % of control; (dose: 50.0 mg/kg/injection, schedule: Q01DX001 (ip), vehicle: saline with Tween-80) 113 % of control.

For the molecule `OCC1OC(OC2(CO)OC(CO)C(O)C2O)C(O)C(O)C1O` (stereo unspecified), the T/C reads like this: (dose: 11.0 mg/kg/injection, schedule: Q01DX009 (ip), vehicle: saline) 118 % of control; (dose: 22.0 mg/kg/injection, schedule: Q01DX009 (ip), vehicle: saline) 113 % of control and 115 % of control; (dose: 67.0 mg/kg/injection, schedule: Q01DX009 (ip), vehicle: saline) 115 % of control and 122 % of control; (dose: 100.0 mg/kg/injection, schedule: Q01DX010 (ip), vehicle: saline) 115 % of control; (dose: 200.0 mg/kg/injection, schedule: Q01DX010 (ip), vehicle: saline) 103 % of control; (dose: 400.0 mg/kg/injection, schedule: Q01DX010 (ip), vehicle: saline) 100 % of control. Under “dose: 600.0 mg/kg/injection, schedule: Q01DX010 (ip), vehicle: saline”, the T/C was 115 % of control.

Turning to `COc1cc(C=Nc2ccc(Cl)cc2)ccc1N(CCCl)CCCl`, the T/C (dose: 2.2 mg/kg/injection, schedule: Q01DX009 (ip), vehicle: other) was 162 % of control; the T/C (dose: 3.3 mg/kg/injection, schedule: Q01DX009 (ip), vehicle: other) was 150 % of control; the T/C (dose: 5.0 mg/kg/injection, schedule: Q01DX009 (ip), vehicle: other) was 179 % of control; the T/C (dose: 7.5 mg/kg/injection, schedule: Q01DX009 (ip), vehicle: other) was 183 % of control; the T/C (dose: 22.0 mg/kg/injection, schedule: Q04DX003 (ip), vehicle: other) is 245 % of control; the T/C (dose: 22.0 mg/kg/injection, schedule: Q04DX003 (ip), vehicle: saline) was 113 % of control. The T/C (dose: 33.0 mg/kg/injection, schedule: Q04DX003 (ip), vehicle: other) is 272 % of control; the T/C (dose: 33.0 mg/kg/injection, schedule: Q04DX003 (ip), vehicle: saline) is 100 % of control; the T/C (dose: 50.0 mg/kg/injection, schedule: Q04DX003 (ip), vehicle: other) is 186 % of control; the T/C (dose: 75.0 mg/kg/injection, schedule: Q04DX003 (ip), vehicle: saline) is 181 % of control.

Regarding `CNC(=O)c1nc(C)c(C)nc1OCc1ccccc1`, the T/C was 100 % of control (dose: 12.5 mg/kg/injection, schedule: Q01DX009 (ip), vehicle: saline); 95 % of control and 124 % of control under setting [3]; 97 % of control and 111 % of control under setting [4]; 111 % of control under setting [5]; 106 % of control and 109 % of control (dose: 100.0 mg/kg/injection, schedule: Q01DX009 (ip), vehicle: saline); 100 % of control under setting [6]. Also, the T/C runs as follows: (dose: 200.0 mg/kg/injection, schedule: Q01DX009 (ip), vehicle: saline) 91 % of control; (dose: 200.0 mg/kg/injection, schedule: Q04DX003 (ip), vehicle: saline) 96 % of control; (dose: 300.0 mg/kg/injection, schedule: Q01DX009 (ip), vehicle: saline) 97 % of control; (dose: 400.0 mg/kg/injection, schedule: Q01DX009 (ip), vehicle: saline) 119 % of control; (dose: 400.0 mg/kg/injection, schedule: Q04DX003 (ip), vehicle: saline) 88 % of control.

Take `C[C@@H]1C[C@H]2CC[C@H](O2)[C@H](C)C(=O)O[C@@H](C)C[C@@H]2CC[C@@H](O2)[C@@H](C)C(=O)O[C@H](C)C[C@H]2CC[C@H](O2)[C@H](C)C(=O)O[C@@H](C)C[C@@H]2CC[C@@H](O2)[C@@H](C)C(=O)O1`: the T/C is 90 % of control (dose: 50.0 mg/kg/injection, schedule: Q01DX009 (ip), vehicle: saline with Tween-80); 109 % of control (dose: 100.0 mg/kg/injection, schedule: Q01DX009 (ip), vehicle: saline with Tween-80); 104 % of control (dose: 100.0 mg/kg/injection, schedule: Q04DX003 (ip), vehicle: saline with Tween-80); 86 % of control (dose: 200.0 mg/kg/injection, schedule: Q04DX003 (ip), vehicle: saline with Tween-80).
